# Test results taken from patent publication US20100183504A1, “MULTIMODAL IMAGING PROBES FOR IN VIVO TARGETED AND NON-TARGETED IMAGING AND THERAPEUTICS” (priority 2007, published 2010).
# What was measured:
# Format in all cases: physicochemical
# [1] = T1/T2 relaxation MRI on Bruker Avance 400 MHz (9.4 T) microimaging system; settings: measured simultaneously with the nanoparticles at 400 MHz; repeated
# Experimental: The concentrations of our solutions are given in terms of silanized nanoparticle concentration and not in terms of Gd^3+ present in solution because the latter is attached to the nanoparticles. At 1 μM concentration, the average distance between nanoparticles is over 100 nm. We determined the concentration of the nanoparticle solution by measuring the UV-vis spectrum. […] We used the following numbers: QD exciton peak at approximately 610 nm, fluorescence emission at approximately 630 nm, full width at half-maximum (fwhm) of 38 nm, extinction coefficient used 620 000 M^−1cm^−1 following published reports (Yu, et al. (2003) Chem. Mater. 15: 2854-2860). […] These latter numbers were computed from the concentrations given by the manufacturer and the OD of citrate-stabilized Au colloids measured directly out of the bottle.
# (§1) All MRI experiments were performed on a Bruker Avance 400 MHz (9.4 T) spectrometer equipped with a high-resolution Micro5 microimaging system with a 25 mm RF coil. […] We also obtained quantitative evaluation of the longitudinal relaxation times, T1, by plotting M/Mo versus log(τ), that is, the residual magnetization as a function of the recovery time. T1 values were measured by fitting M(τ)/Mo to an single-exponential growth curve: (M(τ)/Mo)=(1−[…]). Transverse relaxation times were determined by a plot of log-(M/Mo) versus τ. […]
# [2] = T1 and T2 relaxation time measurements on Bruker Minispecs at 20 and 60 MHz; settings: 20-100 MHz; comparison line
# From the text: After extensive purification from unbound Gd-DOTA, these samples were chemically analyzed by inductively coupled plasma mass spectrometry (ICP-MS) by measuring the total amount of Gd and Cd or Au ions. By assuming bulk parameters of the CdSe or Au lattice and the size of the nanoparticles (using tabulated values linking the size of the QDs to its optical properties, or the claimed size for Au nanocrystals), we deduced the number of Gd per silanized nanoparticle. The number of Gd^3+ […] SiO2-coated nanoparticle varied from 3 to greater than 300 and depends on the size of the initial nanoparticles and the conditions used during the conjugation of Gd-DOTA to the silanized nanoparticles. Notice that the same samples were used for MRI study and ICP-MS analysis.
# T1 and T2 relaxation time measurements were performed on Bruker Minispecs operating at 1H resonance frequencies of 20 and 60 MHz. An inversion recovery pulse sequence was employed for T1 relaxation time measurements using a monoexponential fit to the recovery curve. For each experiment, 4 scans were collected with a recycle delay of 15 s. To obtain the recovery curve, 50 evenly spaced points were collected with the first point acquired at 5 ms. […]
# (§2) The T2 times were calculated from a monoexponential fit to a spin echo decay curve using a Carr-Purcell-Meiboom-Gill (CPMG) pulse sequence. […]
# [3] = Relaxivities summarised over the field strengths investigated or without stated field; settings: three field strengths investigated
# Experimental: T1 and T2 relaxation time measurements were performed on Bruker Minispecs operating at 1H resonance frequencies of 20 and 60 MHz. An inversion recovery pulse sequence was employed for T1 relaxation time measurements using a monoexponential fit to the recovery curve. For each experiment, 4 scans were collected with a recycle delay of 15 s. To obtain the recovery curve, 50 evenly spaced points were collected with the first point acquired at 5 ms. The last time point was collected at 4000 ms for short T1 samples and 10,000 ms for samples with long T1 so that each sample was allowed to fully recover. The receiver gain for each sample was set so that the signal amplitude was approximately 60%.
# as §2, §1
# [4] = Gd3+ release from DOTA, colorimetric Arsenazo test; settings: several weeks
# Experimental: The synthesis of Gd-DOTA (i.e., one Gd3+ ion chelated by DOTA) was performed according to a procedure adapted from previous reports (Wang et al. (1992) Inorg. Chem. 31: 1095-1099; Prantner et al. (2003) Mol. Imaging 2: […]). We dissolved p-NH2-Bn-DOTA (2-(4-aminobenzyl)-1,4,7,10-tet-raazacyclododecane-1,4,7,10-tetraacetic acid) in water and add an aqueous solution of GdCl3 (Sigma-Alrich), so as to have a 1:0.98 molar mixture of DOTA/Gd3+ and approximately 0.2 M concentration in DOTA. The solution was heated a few minutes to 80° C. to favor coordination of Gd3+ with the tetraazacy-clododecane ring. The pH of the solution droped below 1. We brought the pH to 3.5-4 by adding aliquots of 7 M NaOH and heat the solution back to 80° C. for a few minutes. At this early stage, heating produces acidification of the solution. […] At that stage, the solution was kept at 80° C. for 3 h. Completion of the Gd^3+ chelation was confirmed by a colorimetric assay using Arsenazo dye (Sigma-Alrich). This colorimetric dye reacts to the presence of unbound or free Gd^3+. The dye natural color is purple, but if it binds to Gd^3+ its color turns to blue. […] The stability of the Gd-DOTA has been studied using the colorimetric Arsenazo test.
substance,measurement,setting,value
Gd-DOTA,r1 Gd^3+ ion relaxivity of unbound Gd-DOTA,[1],3.7 ± 0.04 mM⁻¹ s⁻¹
same,r2 Gd^3+ ion relaxivity of unbound Gd-DOTA,[1],3.8 ± 0.2 mM⁻¹ s⁻¹
same,r1 Gd^3+ ion relaxivity of unbound Gd-DOTA,[2],3 to 5 mM⁻¹ s⁻¹
same,relaxivities of unbound Gd-DOTA,[3],3 to 12 mM⁻¹ s⁻¹
same,Gd^3+ release from the DOTA ring,[4],No Gd^3+ release
